In test [1] the test system is NIH 3T3 fibroblasts. As to the kind of experiment: Cell growth potentiation test (potentiation of mitogenic activity of fetal calf serum, EZ4U cellular proliferation assay). Format: cell-based. The following applies: for Cell growth potentiation relative to minoxidil at 100 μM (%): 0% = base concentration of FCS alone (5% or 3%), 100% = minoxidil at 100 μM; for Cell growth relative to FCS alone (%): 100% = same growth as base concentration of FCS alone. The source says:
To test for activity in mammalian hair growth stimulation, an in vitro test of cell growth potentiation has been applied to a number of the compounds of the invention and prior art compounds 11901 and 11903. The test involves an assay of the call growth due to potentiation of the mitogenic activity of fetal calf serum (FCS). See WO97/14036. Details of materials, methods and results are as follows.
Tissue culture plastics were obtained from Beckton Dickinson (Cowley, Oxford, UK). NIH 3T3 fibroblasts were obtained from the European collection of animal cell cultures (Salisbury, Wilts, UK). Dulbecco's modified Eagle's medium (DMEM) was obtained from Flow Laboratories (Rickmansworth, Herts, UK). L-Glutamine and fetal calf serum were from Gibco (Paisley, UK).
The EZ4U cell proliferation assay kits were obtained from Cozart Bioscience Ltd (Abingdon, Oxon, UK). All other chemicals were obtained from Sigma Chemical Company Ltd. (Poole, Dorset, UK), and of the highest grade available.
NIH 3T3 fibroblasts were maintained in Dulbecco's modified Eagle's medium supplemented with 10% FCS and 2 mM L-glutamine in 150 cm^2 tissue culture flasks at 37° C. in an atmosphere of 5% CO2/95% air. Antibiotics were omitted. Medium was changed every 3 days, and passages were carried out twice a week before cells reached confluence. Prior to experiments, cells were passaged and plated out to give 10^4 cell/ml in 96-well multi-well plates. Cells were incubated for 24 hours with Dulbecco's modified Eagle's medium supplemented with 10% FCS to aid attachment. This was then removed and the experimental medium added.
Compounds were prepared following a general preparation protocol. This protocol consisted of taking a mass of compound, dissolving in the recommended solvent (40 μl) such that in the final preparation the concentrations of compound and solvent would be 100 μM and 0.1 respectively. In theory this volume was 40 μl, however for accuracy a mass larger than the required mass was dispensed and the solvent volume varied accordingly; only 40 μl of this solution was required for the next stage. The 40 μl volume was then added to a volume of FCS (1.2 ml), such that in the final preparation the concentration of FCS would be 3%. This solution was then added to DMEM containing L-glutamine (2 mM) (18.76 ml). The resulting solution of 20 ml volume was filter stabilised. This solution is now 200 μM in compound, 6% FCS and 0.2% solvent, and so was diluted 1:1 with the DMEM containing L-glutamine. This 100 μM stock could then be diluted serially to provide lower concentrations of the compound of interest. Solutions containing different ratios of compound and FCS were obtained in a similar manner.
This was performed, following the manufacturer's instructions, using an EZ4U assay kit, which is based upon the conversion of tetrazolium salt to coloured formazam derivatives by mitochondria (Hansen et al, 1989). Plates were read on a plate reader (Anthos Labtec HT2), using a measurement filter (450 nm), with a reference filter (620 nm) with a low Shaking density for 5 seconds prior to measurement. Control experiments were made against counting cells in a haemocytometer (sanders et al, 1996). There is some variance of results between different batches of FCS employed.
A series of cell growth potentiation/inhibition tests has been carried out in accordance with the procedure described above on some of the compounds of the invention, on compounds 11901 and 11903 and on minoxidil (a compound well known for its hair growth stimulation effects). Because of some variability of results with different batches of FCS, each compound was tested in a solution of a base concentration of FCS and was compared with minoxidil in a solution of the same base concentration of FCS and with a solution having the same base concentration of FCS alone (no additive), using the same FCS batch in order to provide standardised comparisons for that compound. […]

Test [2] has as its system K+-stimulated isolated rat aorta. The experiment in a line: K+-stimulated isolated rat aorta test. The following applies: relaxation of contraction triggered by 25 mM KCl in rat aorta rings; asterisk (*) = low activity, only approximate value. The procedure:
K^+-stimulated Isolated Rat Aorta Test
Male rats weighing about 300 g are killed painlessly by a blow to the neck and quickly exsanguinated. The thoracic cavity is opened and the aorta is carefully resectioned. It is placed in a Petri dish filled with Krebs solution, and surrounding connective and fatty tissue is removed. Two rings are prepared. The rings are each suspended in an organ bath, They are attached at the bottom to a hook and at the top to an electrical force transducer which is able to measure precisely contractions of 0-10 grams in strength. The measured contractions are amplified by means of a bridge amplifier and recorded with a thermal plotter.
The organ baths are filled with Krebs solution at 37° C. through which an O2/CO2 mixture is bubbled thoroughly and which has the following composition (mmol/1): NaCl 118.4; KCl 4.7; CaCl2 2.5; KH2PO4 1.2; MgSO4 1.2; NaHCO3 25; glucose 11.
The rings are stretched with a basic tone of about 0.5 g, After an equilibration time of about 30 minutes, the rings are caused to undergo contraction by depolarization (addition of 25 mM KCl to the organ bath). The contractions of the rings of aorta, triggered by the depolarization, quickly reach a plateau, As soon as this plateau is reached (“100% value”), the test substance is added to the organ bath, initially at low concentrations, for example 10^−8M, and then in increasing doses at regular intervals, until the contractions reduce or the final concentration of 10^−4M is reached. Each test substance is tested 2-4 times in this way.
For purposes of evaluation, the height of the contractions registered on the plotter paper is measured for each experiment after the action of each test concentration added. The IC50 value can be calculated in this way in relation to the original height of contractions before the addition of substance (100%).

pIC50: −log10 of the molar value.

For the compound “5,5-Dimethyl-7-(2-oxo-1-pyrrolidinyl)-2-(thiazolin-2-yl)-5-thieno[3,2-b]pyran [Compound 50133]”, the “Cell growth potentiation relative to minoxidil at 100 μM (%)” value in test [1] (Compound at 10 μM) turned out to be 54%. The “Cell growth relative to FCS alone (%)” value in test [1] (Compound at 100 μM) amounted to 60%.
With “6′,7′-Dihydro-5′,5′-dimethylspiro[1,3-dithialane-2,7′-5H-thieno[3,2-b]pyran]-2′-carbonitrile [Compound 50066]”, in test [2], the pIC50 (commonly −log10 of the IC50, conventionally taken in molar units) is ~5.00. Also, the “Cell growth potentiation relative to minoxidil at 100 μM (%)” value in test [1] (Compound at 10 μM) is listed as 355%; in test [1] (Compound at 100 μM), 144%.
For “6′,7′-Dihyrdro-5′,5′-dimethylspiro[1,3-dithiolane-2,7′-5H-thieno[3,2-b]pyran] [Compound 50063]”, in test [2], the pIC50 was ~5.00. In addition, the “Cell growth relative to FCS alone (%)” value was 55% in test [1] (Compound at 10 μM) and 93% in test [1] (Compound at 100 μM).
As for `CC1=C(C)C[C@]2(CC(C)(C)Oc3ccsc32)[S@+]([O-])C1` (relative stereo) [Compound 50054, rel-(1′R, 2′R)-3′,6,6′,7-Tetrahydro-4′,5,5′,5-tetramethylspiro[5H-thieno[3,2-b]pyran-7,2′-2H-thiopyran]-1′-oxide], the pIC50 in test [2] was ~5.52.
The same measure, in the same setting: the figure for `CC1=C(C)C[C@@]2(CC(C)(C)Oc3ccsc32)[S@+]([O-])C1` (relative stereo) [Compound 50055, rel-(1′R, 2′S)-3′,6,6′,7-Tetrahydro-4′,5,5′,5-tetramethylspiro[5N-thieno[3,2-b]pyran-7,2′-2H-thiopyran]-1′-oxide] is ~5.00.
Same read-out and setting: the figure for `CC1(C)C[C@@]2(SCC[S@+]2[O-])c2sccc2O1` (relative stereo) [Compound 50064, rel-(1S, 2S)-6′,7′-Dihydro-5′,5′-dimethylspiro[1,3-dithiolane-2,7′-5H-thieno[3,2-b]pyran]-1-oxide] is ~5.00.
As to `CC1(C)C[C@]2(SCC[S@+]2[O-])c2sccc2O1` (relative stereo) [Compound 50065, rel-(1S, 2R)-6′,7′-Dihydro-5′,5′-dimethylspiro[1,3-dithiolane-2,7′-5H-thieno[3,2-b]pyran]-1-oxide], in test [2], the negative-log IC50 (pIC50) is ~4.52.
Turning to `CC1(C)C[C@]2(SCC[S@+]2[O-])c2sc(C#N)cc2O1` (relative stereo) [Compound 50068, rel-(1S, 2R)-6′,7′-Dihydro-5′,5′-dimethylspiro[1,3-dithiolane-2,7′-5H-thieno[3,2-b]pyran]-2′-carbonitrile-1-oxide], the negative-log IC50 (pIC50) in test [2] was ~4.52.
`CC1(C)C[C@]2(SCCC[S@+]2[O-])c2sccc2O1` (relative stereo) [Compound 50070, rel-(1S, 2R)-6′,7′-Dihydro-5′,5′-dimethylspiro[1,3-dithiane-2,7′-5H-thieno[3,2-b]pyran]-1-oxide]: the “Cell growth relative to FCS alone (%)” value in test [1] (Compound at 10 μM) is given as 81%; in test [1] (Compound at 100 μM), 78%.
Take `CC1=C(C)C[C@]2(CC(C)(C)Oc3cc(C#N)sc32)[S@+]([O-])C1` (relative stereo) [Compound 50096, rel-(1′R, 2′R)-3′,6,6′,7-Tetrahydro-4′,5,5′,5-tetramethyl-1′-oxospiro[5H-thieno[3,2-b]pyran-7,2′-2H-thiopyran-2-carbonitrile]: the pIC50 in test [2] is 5.64.
On the same count and under the same terms, the figure for `CC1=C(C)C[C@]2(CC(C)(C)Oc3cc(S(=O)(=O)c4ccccc4)sc32)[S@+]([O-])C1` (relative stereo) [Compound 50126, rel-(1′R,2′R)-3′,6,6′,7-Tetrahydro-4′,5,5′,5-tetramethyl-2-(phenylsulphonyl)spiro[5H-thieno[3,2-b]pyran-7,2′-2H-thiopyran]1′-oxide] is 5.20; for `CC1=C(C)C[C@@]2(CC(C)(C)Oc3cc(S(=O)(=O)c4ccccc4)sc32)[S@+]([O-])C1` (relative stereo) [Compound 50127, rel-(1′R,2′S)-3′,6,6′,7-Tetrahydro-4′,5,5′,5-tetramethyl-2-(phenylsulphonyl)spiro[5H-thieno[3,2-b]pyran-7,2′-2H-thiopyran]1′-oxide] it is 5.13.
Consider `CC1(C)Oc2cc(C(F)(F)C(F)(F)F)sc2[C@@H](N2CCCCC2=O)[C@@H]1O` (relative stereo) [Compound 50174, rel-(6S, 78S)-2-(Pentafluoroethyl)-6,7-dihydro-6-hydroxy-5,5-dimethyl-7-(2-oxo-1-piperidinyl)-5H-thieno[3,2-b]pyran], for which the “Cell growth potentiation relative to minoxidil at 100 μM (%)” value in test [1] (Compound at 10 μM) was determined as 244%; in test [1] (Compound at 100 μM), 133%.
The matching figures for `CC1(C)C=C(N2CCCC2=O)c2sc(C#N)cc2O1` [Compound 50040, 5,5-Dimethyl-7-(2-oxo-1-pyrrolidinyl)-5H-thieno[3,2-b]pyran-2-carbonitrile]: 24% and 48%.
Take `CC1=C(C)C(C2=CC(C)(C)Oc3cc(C#N)sc32)[S+]([O-])C1` (stereo not shown) [Compound 50106, 5,5-Dimethyl-(2,5-dihydro-3,4-dimethyl-1-oxy-thien-2-yl)-5H-thieno[3,2-b]pyran-2-carbonitrile]: the “Cell growth relative to FCS alone (%)” value in test [1] (Compound at 10 μM) was found to be 80%. In addition, the “Cell growth potentiation relative to minoxidil at 100 μM (%)” value in test [1] (Compound at 100 μM) is on record as 60%.
In test [2], `CC1(C)Oc2cc(S(=O)(=O)c3ccccc3)sc2[C@@H](N2CCCC2=O)[C@@H]1O` [Compound 50108, (?)-(6S, 7S)-6,7-Dihydro-6-hydroxy-5,5-dimethyl-7-(2-oxo-1-pyrrolidinyl)-2-(phenylsulphonyl)-5H-thieno[3,2-b]pyran] had a pIC50 of 7.74.
Same read-out and setting: the result for `CC1=C(C)CS(=O)(=O)C2(C1)CC(C)(C)Oc1ccsc12` (stereo not shown) [Compound 50110, 3′,6,6′,7-Tetrahydro-4′,5,5,5′-tetramethyl-spiro[5H-thieno[3,2-b]pyran-7,2′-2H-thiopyran]-1′,1′-dioxide] reads 5.00; that for `CC1(C)CC2(CC3(C)OC3(C)CS2(=O)=O)c2sccc2O1` (stereo not shown) [Compound 50111, 4′,5′-Epoxy-3′,6,6′,7-tetrahydro-4′,5,5,5′-tetramethyl-spiro[5H-thieno[3,2-b]pyran-7,2′-2H-thiopyran]-1′,1′-dioxide], 5.52.
On to `Nc1cc(N2CCCCC2)nc(N)[n+]1[O-]` [minoxidil, reference compound], for which the “concentration of greatest potentiation of mitogenic activity of FCS” value in test [1] (5% FCS, FIG. 2, 100% growth = value for 10% FCS) amounted to 100 µM.

The values are drawn from patent publication US6342517B1, “Potassium channel activators and their use” (Cambridge Bioclinical Limited, priority 1998, dated 2002).
